Patent US9149038B2, “4-amino-6-(heterocyclic)picolinates and 6-amino-2-(heterocyclic)pyrimidine-4-carboxylates and their use as herbicides” (Dow AgroSciences LLC, priority 2013, dated 2015)
Like-named read-outs stand apart in the source and are kept apart here.

Assays:
[1] = system: Key Broadleaf Weed and Crop Species; assay: Post-Emergent Test II: postemergent herbicidal activity, visual rating after 14 d (Table 7); assay type: in vivo; conditions: post-emergence, 336 h; for pest or weed control at 35 g/ha: 35 g ai/ha; for pest or weed control at 70 g/ha: 70 g ai/ha; for pest or weed control at 140 g/ha: 140 g ai/ha
Method in brief: (§1)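 Visual scoring at 14 d, 0 (no injury) to 100 (complete kill), relative to untreated plants. Postemergent overhead track-sprayer application, 187 L/ha, at a top rate plus serial ½×–1/16× rates, to plants grown 7–21 d at about 23–29° C day under a 15 h photoperiod, then subirrigated.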

[2] = system: Key Grass and Sedge Weeds as well as Grass Crops; assay: Post-Emergent Test II: postemergent herbicidal activity, visual rating after 14 d (Table 8); assay type: in vivo; conditions: post-emergence, 336 h; for pest or weed control at 35 g/ha: 35 g ai/ha; for pest or weed control at 70 g/ha: 70 g ai/ha; for pest or weed control at 140 g/ha: 140 g ai/ha
Method in brief: as §1

[3] = lambsquarters (Chenopodium album), read-out: Visual Growth Reduction (%) 14 Days After Application CHEAL
[4] = oilseed rape, canola (Brassica napus), read-out: Visual Growth Reduction (%) 14 Days After Application BRSNN
[5] = redroot pigweed (Amaranthus retroflexus), read-out: Visual Growth Reduction (%) 14 Days After Application AMARE
[6] = sunflower (Helianthus annuus), read-out: Visual Growth Reduction (%) 14 Days After Application HELAN
[7] = velvetleaf (Abutilon theophrasti), read-out: Visual Growth Reduction (%) 14 Days After Application ABUTH
[8] = wild poinsettia (Euphorbia heterophylla), read-out: Visual Growth Reduction (%) 14 Days After Application EPHHL
[9] = barnyardgrass (Echinochloa crus-galli), read-out: Visual Growth Reduction (%) 14 Days After Application ECHCG
[10] = giant foxtail (Setaria faberi), read-out: Visual Growth Reduction (%) 14 Days After Application SETFA
[11] = maize, corn (Zea mays), read-out: Visual Growth Reduction (%) 14 Days After Application ZEAMX
[12] = rice (Oryza sativa), read-out: Visual Growth Reduction (%) 14 Days After Application ORYSA
[13] = wheat, spring (Triticum aestivum), read-out: Visual Growth Reduction (%) 14 Days After Application TRZAS
[14] = yellow nutsedge (Cyperus esculentus), read-out: Visual Growth Reduction (%) 14 Days After Application CYPES

COC(=O)c1nc(-c2cc3c(cc2F)OC(F)(F)O3)c(F)c(N)c1F [Compound 21]
pest or weed control at 35 g/ha [1, 3]: 0 to 29% | pest or weed control at 70 g/ha [1, 3]: 0 to 29% | pest or weed control at 140 g/ha [1, 3]: 0 to 29% | pest or weed control at 35 g/ha [1, 4]: 0 to 29% | pest or weed control at 70 g/ha [1, 4]: 0 to 29% | pest or weed control at 140 g/ha [1, 4]: 0 to 29% | pest or weed control at 35 g/ha [1, 5]: 0 to 29% | pest or weed control at 70 g/ha [1, 5]: 0 to 29% | pest or weed control at 140 g/ha [1, 5]: 0 to 29% | pest or weed control at 35 g/ha [1, 6]: 45 to 59% | pest or weed control at 70 g/ha [1, 6]: 45 to 59% | pest or weed control at 140 g/ha [1, 6]: 60 to 74% | pest or weed control at 35 g/ha [1, 7]: 0 to 29% | pest or weed control at 70 g/ha [1, 7]: 0 to 29% | pest or weed control at 140 g/ha [1, 7]: 0 to 29% | pest or weed control at 35 g/ha [1, 8]: 0 to 29% | pest or weed control at 70 g/ha [1, 8]: 0 to 29% | pest or weed control at 140 g/ha [1, 8]: 0 to 29% | pest or weed control at 35 g/ha [2, 9]: 0 to 29% | pest or weed control at 70 g/ha [2, 9]: 0 to 29% | pest or weed control at 140 g/ha [2, 9]: 0 to 29% | pest or weed control at 35 g/ha [2, 10]: 0 to 29% | pest or weed control at 70 g/ha [2, 10]: 0 to 29% | pest or weed control at 140 g/ha [2, 10]: 60 to 74% | pest or weed control at 35 g/ha [2, 11]: 0 to 29% | pest or weed control at 70 g/ha [2, 11]: 0 to 29% | pest or weed control at 140 g/ha [2, 11]: 45 to 59% | pest or weed control at 35 g/ha [2, 12]: 0 to 29% | pest or weed control at 70 g/ha [2, 12]: 0 to 29% | pest or weed control at 140 g/ha [2, 12]: 0 to 29% | pest or weed control at 35 g/ha [2, 13]: 0 to 29% | pest or weed control at 70 g/ha [2, 13]: 0 to 29% | pest or weed control at 140 g/ha [2, 13]: 0 to 29% | pest or weed control at 35 g/ha [2, 14]: 0 to 29% | pest or weed control at 70 g/ha [2, 14]: 0 to 29% | pest or weed control at 140 g/ha [2, 14]: 0 to 29%
